Patent US20120122727A1, “IN VITRO METHOD FOR PREDICTING WHETHER A COMPOUND IS GENOTOXIC IN VIVO” (priority 2009, published 2012)

Assays:
[1] = system: primary mouse hepatocytes; assay: Gene expression in primary mouse hepatocytes, GTX vs non-GTX (four-gene classifier, 24 h)
Protocol: Hepatocyte cells were incubated and exposed to a compound for 24 h before being harvested for RNA isolation.
The results of the gene expression analysis may then be fed into a statistical software package such as R, Splus, or Microsoft Excel. […] If none or only one of these criteria were met, no point was scored.
For each of the four genes mentioned in the table (1700007K13RIK, GAS2L3, SPC25, DDIT4L), a statistical comparison was made between the normalized expression data for these genes. […] If none or only one of these criteria were met, no point was scored.
For each compound, the sum of the scores for four genes is taken. If this score is 0, a compound can be believed not to be genotoxic. If this score is 1, 2, 3 or 4, a compound is genotoxic.
If none or only one of these criteria were met, no point was scored.

[2] = system: primary mouse hepatocytes; assay: Gene expression (Affymetrix Mouse Genome 430 2.0) in primary mouse hepatocytes, true vs false GTX, 24 h and 48 h

Aflatoxin B1 [AFB1]
Ratios of gene expression treated/untreated 1700007K13RIK [1]: 2.912 | Ratios of gene expression treated/untreated DDIT4L [1]: 1.616 | Ratios of gene expression treated/untreated GAS2L3 [1]: 1.234 | Ratios of gene expression treated/untreated SPC25 [1]: 1.523 | Total score [1]: 4 | score 1700007K13RIK [1]: 1 | score DDIT4L [1]: 1 | score GAS2L3 [1]: 1 | score SPC25 [1]: 1 | Gene expression AA561726 average [2]: −1.481 | Gene expression AF000969 average [2]: −2.346 | Gene expression AF022072 average [2]: −0.9913 | Gene expression AF033112 average [2]: 1.033 | Gene expression AF055573 average [2]: −2.3744 | Gene expression AF069954 average [2]: 0.2361 | Gene expression AF297615 average [2]: 2.175 | Gene expression AF335325 average [2]: 1.3645 | Gene expression AI594683 average [2]: 1.508 | Gene expression AI747296 average [2]: −1.533 | Gene expression AK005731 average [2]: 2.2191 | Gene expression AK007854 average [2]: 1.5416 | Gene expression AK010447 average [2]: −1.2768 | Gene expression AK010738 average [2]: 0.6579 | Gene expression AK014608 average [2]: 1.186 | Gene expression AK017734 average [2]: 0.4796 | Gene expression AK018383 average [2]: 0.4069 | Gene expression AK019979 average [2]: −2.271 | Gene expression AV095209 average [2]: −0.6169 | Gene expression AV141095 average [2]: −1.192 | Gene expression AV173869 average [2]: −0.8814 | Gene expression AV216768 average [2]: −1.282 | Gene expression AV219418 average [2]: 0.8603 | Gene expression AV221299 average [2]: −0.7873 | Gene expression AV246296 average [2]: 1.098 | Gene expression AV251625 average [2]: 0.5471 | Gene expression AV254764 average [2]: 1.543 | Gene expression AV327248 average [2]: 1.4639 | Gene expression BB009155 average [2]: 1.3686 | Gene expression BB027848 average [2]: −0.004367 | Gene expression BB043558 average [2]: 1.629 | Gene expression BB046347 average [2]: 0.5079 | Gene expression BB140436 average [2]: −0.4938 | Gene expression BB204486 average [2]: −1.371 | Gene expression BB223872 average [2]: 0.5263 | Gene expression BB246912 average [2]: −1.2439 | Gene expression BB275142 average [2]: 0.5302 | Gene expression BB458460 average [2]: −1.132 | Gene expression BB463610 average [2]: 1.2472 | Gene expression BB730977 average [2]: −0.256 | Gene expression BB743970 average [2]: 0.3813 | Gene expression BB770528 average [2]: 0.8678 | Gene expression BB781615 average [2]: 0.9722 | Gene expression BC003284 average [2]: 0.7036 | Gene expression BC004827 average [2]: −1.255 | Gene expression BC005552 average [2]: −0.7309 | Gene expression BC006713 average [2]: 0.942 | Gene expression BC010318 average [2]: −0.9565 | Gene expression BC012247 average [2]: 0.7954 | Gene expression BC012955 average [2]: −1.403 | Gene expression BC013893 average [2]: 0.3479 | Gene expression BC017615 average [2]: −2.585 | Gene expression BC019379 average [2]: −1.263 | Gene expression BC019882 average [2]: 1.2329 | Gene expression BC021352 average [2]: 1.59 | Gene expression BC022148 average [2]: 1.0426 | Gene expression BC025169 average [2]: −1.03 | Gene expression BC026131 average [2]: −0.4476 | Gene expression BC027026 average [2]: 0.6995 | Gene expression BC027121 average [2]: 0.9799 | Gene expression BC027185 average [2]: 0.0776 | Gene expression BE956581 average [2]: 1.7703 | Gene expression BF719766 average [2]: 1.1094 | Gene expression BG065754 average [2]: 0.6884 | Gene expression BG066491 average [2]: −1.6995 | Gene expression BG076151 average [2]: 0.4779 | Gene expression BG076333 average [2]: −0.3573 | Gene expression BG797099 average [2]: 1.027 | Gene expression BG967046 average [2]: 0.6249 | Gene expression BI651416 average [2]: 1.979 | Gene expression BI966443 average [2]: 0.699 | Gene expression BM198879 average [2]: 1.579 | Gene expression BM200015 average [2]: 0.9342 | Gene expression BM230508 average [2]: 0.637 | Gene expression BM936480 average [2]: 0.1463 | Gene expression BQ174991 average [2]: −0.6262 | Gene expression L21027 average [2]: −1.868 | Gene expression NM_007556 average [2]: −0.9667 | Gene expression NM_007980 average [2]: 0.412 | Gene expression NM_007987 average [2]: 0.8772 | Gene expression NM_008522 average [2]: 2.271 | Gene expression NM_008935 average [2]: −1.772 | Gene expression NM_009897 average [2]: 1.054 | Gene expression NM_011075 average [2]: 1.1557 | Gene expression NM_011176 average [2]: 1.3047 | Gene expression NM_011316 average [2]: 0.6494 | Gene expression NM_012006 average [2]: 1.7541 | Gene expression NM_013642 average [2]: −0.2528 | Gene expression NM_013738 average [2]: 0.4146 | Gene expression NM_013929 average [2]: 0.7449 | Gene expression NM_018881 average [2]: 0.2001 | Gene expression NM_019738 average [2]: −2.37 | Gene expression NM_030697 average [2]: 1.271 | Gene expression NM_053122 average [2]: −2.304 | Gene expression NM_134147 average [2]: −1.51 | Gene expression NM_134188 average [2]: −0.159 | Gene expression X62701 average [2]: −0.6611 | Gene expression data AF000969 (Cadps2) [2]: −2.17 | Gene expression data AF022072 (Grb10) [2]: −1.2526 | Gene expression data AF065917 (Lif) [2]: 0.6896 | Gene expression data AF204959 (Cyp3a25 /// LOC622249) [2]: 1.404 | Gene expression data AF297615 (Ggta1) [2]: 1.1224 | Gene expression data AI594683 (Dmn) [2]: 1.048 | Gene expression data AI596632 (Ptprg /// LOC632664) [2]: −1.9945 | Gene expression data AI987929 (Ndrg1) [2]: −0.8074 | Gene expression data AK004419 (Fbxl17) [2]: −1.365 | Gene expression data AK005731 (1700007K13Rik) [2]: 2.2462 | Gene expression data AK007766 (1810044A24Rik) [2]: −1.554 | Gene expression data AK007854 (1810053B23Rik) [2]: 1.391 | Gene expression data AK009736 (Gpr137b /// LOC664862 /// LOC673335) [2]: −0.5076 | Gene expression data AK010447 (Smyd3) [2]: −1.2553 | Gene expression data AK014608 (4632434l11Rik) [2]: 1.765 | Gene expression data AK019979 (2610528E23Rik) [2]: −2.537 | Gene expression data AV095209 (Mthfd1l) [2]: −0.8398 | Gene expression data AV141095 (1110033M05Rik) [2]: −1.295 | Gene expression data AV173571 (1700106N22Rik) [2]: −1.239 | Gene expression data AV219418 (Ldhb) [2]: 0.2817 | Gene expression data AV223474 (Zdhhc14) [2]: −1.025 | Gene expression data AV298304 (Homez) [2]: 1.03 | Gene expression data AV327248 (Zfp365 /// LOC674611) [2]: 0.8055 | Gene expression data AV377066 (9130221J18Rik) [2]: 1.0883 | Gene expression data AW240761 (Tbc1d5) [2]: −1.118 | Gene expression data AW543460 (Pard3) [2]: −0.2756 | Gene expression data AW543723 [2]: 1.427 | Gene expression data AW986246 (Maoa) [2]: −0.3385 | Gene expression data BB027848 (4732466D17Rik) [2]: −0.016 | Gene expression data BB043558 (9230114K14Rik) [2]: 1.671 | Gene expression data BB275142 (AW456874) [2]: 1.009 | Gene expression data BB308836 (Ppm1l) [2]: −1.077 | Gene expression data BB318221 (Zdhhc14) [2]: −1.0808 | Gene expression data BB463610 (4632434l11Rik) [2]: 1.7658 | Gene expression data BB526605 (Mipol1) [2]: −0.7181 | Gene expression data BB770528 (Rai2) [2]: 0.7477 | Gene expression data BB821363 (Scfd2) [2]: −1.354 | Gene expression data BC004827 (Psat1) [2]: −1.0032 | Gene expression data BC008626 (Icam1) [2]: 1.4158 | Gene expression data BC010462 (BC010462) [2]: 0.9985 | Gene expression data BC012247 (Dcxr) [2]: 0.3677 | Gene expression data BC012260 (Psmf1) [2]: 1.2375 | Gene expression data BC015270 (Hist2h3c2) [2]: 1.093 | Gene expression data BC016073 (Cdkal1) [2]: −1.1 | Gene expression data BC016265 (Ube2e2) [2]: −0.8797 | Gene expression data BC019882 (Acaa1b) [2]: 0.4654 | Gene expression data BC025501 (Aaas) [2]: 1.14 | Gene expression data BC025837 (Sbk1) [2]: 0.4694 | Gene expression data BC025915 (Cova1) [2]: −0.642 | Gene expression data BC026422 (Tgm1) [2]: 0.8843 | Gene expression data BF719766 (Thyn1) [2]: 0.3892 | Gene expression data BG065754 (Ccng1) [2]: 0.8383 | Gene expression data BG066903 (Kif16b) [2]: −0.5074 | Gene expression data BG069873 (Gnb1l) [2]: 0.7276 | Gene expression data BG070887 (Gtdc1) [2]: −1.473 | Gene expression data BG076151 (Ppm1d) [2]: 0.6026 | Gene expression data BG261907 (Large) [2]: −1.119 | Gene expression data BI651416 (Cdc42bpg) [2]: 1.8011 | Gene expression data BI660702 (Ell3) [2]: 0.4068 | Gene expression data BM198879 (Ercc5) [2]: 1.61 | Gene expression data BM230508 (A030007D23Rik) [2]: 0.5919 | Gene expression data NM_007987 (Fas) [2]: 0.628 | Gene expression data NM_008522 (Ltf) [2]: 1.055 | Gene expression data NM_008576 (Abcc1) [2]: −0.1885 | Gene expression data NM_011176 (St14) [2]: 1.289 | Gene expression data NM_011316 (Saa4) [2]: 0.2733 | Gene expression data NM_012006 (Acot1) [2]: 1.251 | Gene expression data NM_013866 (Zfp385) [2]: 0.9513 | Gene expression data NM_018770 (Igsf4a) [2]: −0.439 | Gene expression data NM_021451 (Pmaip1) [2]: 1.1 | Gene expression data NM_025770 (Atg10) [2]: −1.128 | Gene expression data NM_028803 (Gbe1) [2]: −1.004 | Gene expression data NM_030697 (Ankrd47) [2]: 1.8143 | Gene expression data NM_053168 (Trim11) [2]: 1.268 | Gene expression data NM_134188 (Acot2) [2]: 0.01207 | Gene expression data Y15910 (Diap2) [2]: −1.889
